Experimental data as given in PubChem BioAssay AID248 (DTP/NCI, 2004).
Several values for one entry are separate records, joined by “and”; a condition that tells them apart may be missing. Identical values can stand only once. Toxic doses and inconclusive results are not listed. No stated cut-off is given here; in the data, active means T/C of 150% or more; inactive means T/C below 125%.

Test system: L1210 leukemia ip in BDF1 mice, survival T/C
Assay: NCI In Vivo Anticancer Drug Screen. Data for tumor model L1210 Leukemia (intraperitoneal) in B6D2F1 (BDF1) mice
Details: endpoint: mean survival time, higher = longer survival
Outline: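 Mice bearing the transplanted tumor received compound or vehicle. Survival of the treated group was divided by that of the vehicle-treated control group to give the ratio.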

[1] = dose: 100.0 mg/kg/injection, schedule: Q04DX003 (ip), vehicle: saline
[2] = dose: 200.0 mg/kg/injection, schedule: Q04DX003 (ip), vehicle: saline
[3] = dose: 100.0 mg/kg/injection, schedule: Q01DX009 (ip), vehicle: saline
[4] = dose: 200.0 mg/kg/injection, schedule: Q01DX009 (ip), vehicle: saline
[5] = dose: 100.0 mg/kg/injection, schedule: Q01DX001 (ip), vehicle: saline
[6] = dose: 200.0 mg/kg/injection, schedule: Q01DX001 (ip), vehicle: saline
[7] = dose: 400.0 mg/kg/injection, schedule: Q01DX001 (ip), vehicle: saline
[8] = dose: 100.0 mg/kg/injection, schedule: Q01DX009 (ip), vehicle: Klucel (hydroxypropylcellulose) (HPC)
[9] = dose: 100.0 mg/kg/injection, schedule: Q04DX002 (ip), vehicle: Klucel (hydroxypropylcellulose) (HPC)
[10] = dose: 200.0 mg/kg/injection, schedule: Q01DX009 (ip), vehicle: Klucel (hydroxypropylcellulose) (HPC)
[11] = dose: 400.0 mg/kg/injection, schedule: Q01DX009 (ip), vehicle: Klucel (hydroxypropylcellulose) (HPC)
[12] = dose: 200.0 mg/kg/injection, schedule: Q04DX002 (ip), vehicle: Klucel (hydroxypropylcellulose) (HPC)
[13] = dose: 400.0 mg/kg/injection, schedule: Q04DX002 (ip), vehicle: Klucel (hydroxypropylcellulose) (HPC)
[14] = dose: 400.0 mg/kg/injection, schedule: Q04DX003 (ip), vehicle: saline
[15] = dose: 100.0 mg/kg/injection, schedule: Q01DX009 (ip), vehicle: saline with Tween-80
[16] = dose: 200.0 mg/kg/injection, schedule: Q01DX009 (ip), vehicle: saline with Tween-80

Measured: T/C

CC(=O)NCCO
inactive: dose: 100.0 mg/kg/injection, schedule: Q01DX001 (ip), vehicle: saline with Tween-80 100 % of control | dose: 200.0 mg/kg/injection, schedule: Q01DX001 (ip), vehicle: saline with Tween-80 105 % of control | dose: 400.0 mg/kg/injection, schedule: Q01DX001 (ip), vehicle: saline with Tween-80 100 % of control

CCCC[n+]1ccc(C(N)=O)cc1
inactive: [1] 100 % of control | [2] 100 % of control

C/C(=N\NC(N)=O)C(F)(F)F
inactive: dose: 15.0 mg/kg/injection, schedule: Q01DX Z (ip), vehicle: carboxymethylcellulose (CMC) 110 % of control | dose: 30.0 mg/kg/injection, schedule: Q01DX Z (ip), vehicle: carboxymethylcellulose (CMC) 93 % of control | dose: 60.0 mg/kg/injection, schedule: Q01DX Z (ip), vehicle: carboxymethylcellulose (CMC) 100 % of control and 103 % of control | dose: 120.0 mg/kg/injection, schedule: Q01DX Z (ip), vehicle: carboxymethylcellulose (CMC) 103 % of control and 109 % of control | dose: 120.0 mg/kg/injection, schedule: Q01DX Z (oral), vehicle: carboxymethylcellulose (CMC) 109 % of control | dose: 240.0 mg/kg/injection, schedule: Q01DX Z (ip), vehicle: carboxymethylcellulose (CMC) 112 % of control | dose: 240.0 mg/kg/injection, schedule: Q01DX Z (oral), vehicle: carboxymethylcellulose (CMC) 101 % of control | dose: 480.0 mg/kg/injection, schedule: Q01DX Z (oral), vehicle: carboxymethylcellulose (CMC) 90 % of control

CCOC(=O)c1ncc2cnccn12
inactive: dose: 50.0 mg/kg/injection, schedule: Q01DX009 (ip), vehicle: saline 92 % of control | [3] 120 % of control | [1] 107 % of control | [4] 94 % of control | [2] 104 % of control

Nc1[nH]c(=O)[nH]c(=O)c1N=Nc1ccc(S(=O)(=O)Nc2ncccn2)cc1
inactive: [5] 94 % of control | [6] 98 % of control | [7] 96 % of control

Cc1cccc(C)c1NC(=O)NCc1ccco1
inactive: dose: 25.0 mg/kg/injection, schedule: Q04DX002 (ip), vehicle: Klucel (hydroxypropylcellulose) (HPC) 99 % of control | dose: 50.0 mg/kg/injection, schedule: Q04DX002 (ip), vehicle: Klucel (hydroxypropylcellulose) (HPC) 118 % of control | [8] 103 % of control | [9] 100 % of control and 103 % of control | dose: 100.0 mg/kg/injection, schedule: Q04DX003 (ip), vehicle: Klucel (hydroxypropylcellulose) (HPC) 103 % of control | [10] 107 % of control | dose: 200.0 mg/kg/injection, schedule: Q04DX003 (ip), vehicle: Klucel (hydroxypropylcellulose) (HPC) 100 % of control | [11] 102 % of control | dose: 400.0 mg/kg/injection, schedule: Q04DX003 (ip), vehicle: Klucel (hydroxypropylcellulose) (HPC) 93 % of control

O=C(NNC(=O)c1ccccc1)c1ccccc1
inactive: [9] 101 % of control | [12] 101 % of control | [13] 101 % of control

COc1ccc(C(=O)OCc2ccccc2CN2CCCCC2)cc1
inactive: [9] 102 % of control | [12] 102 % of control | [13] 86 % of control

CC1(C)c2ccccc2C(=O)C1Cc1ccccc1 (stereo not drawn)
inactive: [3] 102 % of control | [1] 107 % of control | [4] 101 % of control | [2] 104 % of control | dose: 400.0 mg/kg/injection, schedule: Q01DX009 (ip), vehicle: saline 98 % of control | [14] 96 % of control

COc1ccc(C(=O)c2ccccc2C)cc1OC
inactive: [5] 95 % of control | [6] 97 % of control | [7] 91 % of control

Cn1cnc2nn[nH]c(=O)c21
inactive: [8] 94 % of control | [1] 92 % of control | [10] 96 % of control | [2] 92 % of control | [11] 90 % of control | [14] 95 % of control

Cc1cc(Cl)ccc1NC(=O)c1ccc([N+](=O)[O-])cc1
inactive: [15] 92 % of control | dose: 100.0 mg/kg/injection, schedule: Q04DX003 (ip), vehicle: saline with Tween-80 92 % of control | [16] 86 % of control | dose: 200.0 mg/kg/injection, schedule: Q04DX003 (ip), vehicle: saline with Tween-80 93 % of control | dose: 400.0 mg/kg/injection, schedule: Q04DX003 (ip), vehicle: saline with Tween-80 92 % of control

COc1ccc(C2C(=O)c3ccccc3C2=O)cc1OC
inactive: dose: 100.0 mg/kg/injection, schedule: Q01DX001 (ip), vehicle: Klucel (hydroxypropylcellulose) (HPC) 94 % of control | dose: 200.0 mg/kg/injection, schedule: Q01DX001 (ip), vehicle: Klucel (hydroxypropylcellulose) (HPC) 88 % of control

NC(C(=O)O)C(O)c1ccc2c(c1)OCO2 (stereo not drawn)
inactive: [15] 103 % of control | [16] 103 % of control | dose: 400.0 mg/kg/injection, schedule: Q01DX009 (ip), vehicle: saline with Tween-80 113 % of control

NC(=O)N=C(N)N
inactive: [5] 92 % of control | [6] 90 % of control | [7] 92 % of control

CC1(C)N=C(c2ccccc2)C2C(c3ccc([N+](=O)[O-])cc3)N21 (stereo not drawn)
inactive: dose: 50.0 mg/kg/injection, schedule: Q01DX001 (ip), vehicle: carboxymethylcellulose (CMC) 98 % of control | dose: 100.0 mg/kg/injection, schedule: Q01DX001 (ip), vehicle: carboxymethylcellulose (CMC) 88 % of control | dose: 200.0 mg/kg/injection, schedule: Q01DX001 (ip), vehicle: carboxymethylcellulose (CMC) 93 % of control | dose: 400.0 mg/kg/injection, schedule: Q01DX001 (ip), vehicle: carboxymethylcellulose (CMC) 91 % of control

Cc1cc(N)c2cc(NC(=O)CCCCCCCC(=O)Nc3ccc4nc(C)cc(N)c4c3)ccc2n1
inactive: dose: 20.0 mg/kg/injection, schedule: Q01DX Z (ip), vehicle: methylcellulose (MC) 93 % of control | dose: 33.0 mg/kg/injection, schedule: Q01DX Z (ip), vehicle: methylcellulose (MC) 110 % of control | dose: 50.0 mg/kg/injection, schedule: Q01DX Z (ip), vehicle: methylcellulose (MC) 112 % of control | dose: 75.0 mg/kg/injection, schedule: Q01DX Z (ip), vehicle: methylcellulose (MC) 114 % of control

O=[N+]([O-])c1cc(/C=N/NC(=S)NC23CC4CC(CC(C4)C2)C3)ccc1Cl
inactive: dose: 75.0 mg/kg/injection, schedule: Q01DX001 (ip), vehicle: other 97 % of control | dose: 150.0 mg/kg/injection, schedule: Q01DX001 (ip), vehicle: other 89 % of control | dose: 300.0 mg/kg/injection, schedule: Q01DX001 (ip), vehicle: other 91 % of control

CC1(C)c2ccc([nH]2)C(C)(C)c2ccc([nH]2)C(C)(C)c2c[nH]cc2C(C)(C)c2ccc1[nH]2
inactive: [5] 102 % of control | [6] 94 % of control | [7] 97 % of control

FC(F)(F)c1ccc2c(c1)N(CCCN1CCN(CCN3CCOCC3)CC1)c1ccccc1S2
inactive: dose: 0.78 mg/kg/injection, schedule: Q01DX009 (ip), vehicle: saline 100 % of control | dose: 1.56 mg/kg/injection, schedule: Q01DX009 (ip), vehicle: saline 106 % of control | dose: 3.12 mg/kg/injection, schedule: Q01DX009 (ip), vehicle: saline 95 % of control | dose: 12.5 mg/kg/injection, schedule: Q04DX003 (ip), vehicle: saline 108 % of control | dose: 25.0 mg/kg/injection, schedule: Q04DX003 (ip), vehicle: saline 116 % of control
